Test results: paper PMC9400670, “Establishing the selective phospholipid membrane coordination, permeation and lysis properties for a series of ‘druggable’ supramolecular self-associating antimicrobial amphiphiles” (Chemical Science, 2022)

Legend:
MRSA USA300 = settings: n = 3, 0.5 McFarland standard, after 900 min, number in bracket = efficacy rank; cited from earlier work
[1] = parameters: method as in PMID 29568426; settings: surface tension; 19 : 1 H2O : EtOH solution at 298 K; unit printed only in Figs S37-S40; cited from earlier work
[2] = system: calcein loaded phospholipid vesicles (PC, PG, PE-PG mix, E. coli total, E. coli polar); experiment: Synthetic phospholipid vesicle lysis (calcein leakage) assay; settings: SSA titration; concentrations ≤0.5 mM; after 15 min; in words
[3] = system: phospholipid vesicles (PC, PG, PE-PG mix, E. coli total, E. coli polar); experiment: Vesicle membrane binding assay (FP), comparison across the five vesicle types; settings: SSA 0.15 mM, in words
Description: For intrinsically fluorescent SSAs 5, 6 and 8–12, FP titration experiments enabled the observation of SSA: phospholipid vesicle interactions. Here, an increase in FP value indicates an increase in the apparent size of the SSA as it interacts with the phospholipid vesicle.
The results of these studies have been summarised for convenience in Table 3 however, specific SSA: phospholipid vesicle interactions are also exemplified within Fig. 8. […] Here phospholipid vesicle selectivity appears to be driven by the presence of a methyl substituent appended from the benzothiazole unit, in addition to a urea-methyl/ethyl spacer-anionic functionality. Interesting the presence of the thiourea group, increasing SSA […] and increasing hydrogen bond donor acidity, while increasing the levels of vesicle interaction overall, decreased any specific SSA selectivity. […]
Fluorescence polarisation: Lipid films were resuspended in Buffer (150 mM KCl, 10 mM HEPES, pH 7.4, 2 mM EGTA) and subjected to 9 freeze-thaw cycles in liquid nitrogen and extruded 20 times through a 200 nm polycarbonate membrane. Black bottom 96-well plates were prepared by serially diluting desired vesicle solution across the plate, the appropriate SSA solution (100 µL, 0.15 mM) was added to each well to give a total well volume of 200 µL. Fluorescent SSA solutions were set to a FP value of 100 mP. Data were acquired in endpoint mode. […]
1H NMR CPMG: 1H NMR CPMG3,4 spectra were obtained with a Bruker Avance III […] spectrometer equipped with a TCIP cryoprobe at 298 K. Samples were supplemented with 5 % D 2O and 0.02 mM 4,4-dimethyl4-silapentane-1-sulfonic acid (DSS). […]
The P1 pulses were 9 µs at a power of 7.9 W. Presaturation was applied between acquisitions for 100 ms at a power level of 280 mW and acquisition was carried out of 85 2 µs. Water […]
180 o pulses of 1 ms. Repetition times were chosen to achieve suitable water suppression with the presat and watergate sequences used in 95 % H2O solution. The length of the CPMG element was chosen to achieve good differentiation between unbound and strongly bound ligands. Data was collected with 16,384 points and a spectral width of 16.0242 ppm, receiver gain was set to 128, with 512 scans, 8 dummy scans and an acquisition time of 0.85 s. Data was processed using MestreNova software. All spectra were automatically phased, baselined corrected using a polynomial function and calibrated to the centre of the DSS peak.
Fitting of 1H NMR CPMG data: The data was fit to Michaelis Menten and Hill plot models and compared through R2 analysis using Origin 2022 software,5 growth/sigmoidal category, Hill/MichaelisMenten function, Levenberg Marquardt iteration algorithm. Vmax fixed to 100 % as this was the greatest proportion of SSA that could be coordinated to the nanodiscs. […]

## O=C(NCS(=O)(=O)O)Nc1ccc(C(F)(F)F)cc1 [SSA 3]
MRSA USA300
  MIC50 MRSA: 0.35(1) mM

## O=C(O)CNC(=O)Nc1ccc(C(F)(F)F)cc1 [SSA 4]
MRSA USA300
  MIC50 MRSA: 1.14(6) mM

## O=C(NCS(=O)(=O)O)Nc1ccccc1-c1nc2ccccc2s1 [SSA 5]
MRSA USA300
  MIC50 MRSA: 0.99(5) mM
[1]
  CMC: 9.5 (ref. [38]) mM
[2]
  vesicle lysis PG over PC: enhanced levels of vesicle lysis against PG

## O=C(NCS(=O)(=O)O)Nc1ccc(-c2nc3ccccc3s2)cc1 [SSA 8]
[3]
  SSA: phospholipid vesicle interaction / selectivity (FP titration): little selectivity for different phospholipid membranes
[2]
  vesicle lysis PG over PC: enhanced levels of vesicle lysis against PG

## O=C(NCS(=O)(=O)O)Nc1ccc(C(F)(F)F)cc1 [SSA 1]
MRSA USA300
  MIC50 MRSA: 0.46(2) mM

## Cc1ccc2nc(-c3ccc(NC(=O)NCS(=O)(=O)O)cc3)sc2c1 [SSA 6]
[3]
  SSA: phospholipid vesicle interaction / selectivity (FP titration): limited selectivity with a preference for PC, PG and E. coli polar over the E. coli total and PG : PE mix
MRSA USA300
  MIC50 MRSA: 0.93(4) mM
[1]
  CMC: 0.5 (ref. [38]) mM
[2]
  vesicle lysis PG over PC: enhanced levels of vesicle lysis against PG

## Cc1ccc2nc(-c3ccc(NC(=S)NCS(=O)(=O)O)cc3)sc2c1 [SSA 12]
[3]
  SSA: phospholipid vesicle interaction / selectivity (FP titration): strong interaction with all phospholipid vesicles tested

## Cc1ccc2nc(-c3ccc(NC(=O)NCCCS(=O)(=O)O)cc3)sc2c1 [SSA 10]
[3]
  SSA: phospholipid vesicle interaction / selectivity (FP titration): little selectivity for different phospholipid membranes
